From ChEMBL document CHEMBL1129098, “Structure-activity dependency of new bacterial tryptophanyl tRNA synthetase inhibitors” (Bioorg Med Chem Lett, 1996)
Values after ≈ are worked out from the molar mass of the structure shown.

How the values were obtained:
[1] = Inhibition of tryptophanyl tRNA synthetase isolated from Staphylococcus aureus
[2] = tested on: Staphylococcus aureus; assay: Antibacterial activity against Staphylococcus aureus; format: functional

MIC [2] [µg/mL] | Compound | I50 [1] [ng/mL]
> 512 | CNC1=NC(=O)[C@H]([C@H](CC(=O)OC(C)(C)C)c2c[nH]c3ccccc23)O1 | > 100000
32 (≈ 118 µM) | CNC1=NC(=O)[C@H](C(C)(C)c2c[nH]c3ccccc23)O1 | 580
> 512 | CNC1=NC(=O)[C@H]([C@H](CN)c2c[nH]c3ccccc23)O1 | > 100000
> 64 | CNC1=NC(=O)[C@H]([C@@H](O)c2c[nH]c3ccccc23)O1 | 44000
> 512 | CNC1=NC(=O)[C@H]([C@@H](CC(=O)OC(C)(C)C)c2c[nH]c3ccccc23)O1 | > 100000
> 512 | CC[C@@H](c1c[nH]c2ccccc12)[C@@H]1OC(NC)=NC1=O | 22000
64 (≈ 212 µM) | CNC1=NC(=O)[C@H]([C@H](C[N+](=O)[O-])c2c[nH]c3ccccc23)O1 | 2300
64 (≈ 236 µM) | CC[C@H](c1c[nH]c2ccccc12)[C@@H]1OC(NC)=NC1=O | 250
64 (≈ 236 µM) | CNC1=NC(=O)[C@](C)([C@H](C)c2c[nH]c3ccccc23)O1 | 1200
> 512 | CNC1=NC(=O)[C@H]([C@@H](CC(=O)O)c2c[nH]c3ccccc23)O1 | > 100000
> 512 | CNC1=NC(=O)[C@H]([C@H](CC(=O)O)c2c[nH]c3ccccc23)O1 | > 100000
> 64 | CNC1=NC(=O)[C@H]([C@](C)(O)c2c[nH]c3ccccc23)O1 | > 100000
0.25 (≈ 0.915 µM) | CNC1=NC(=O)[C@H]([C@@](C)(O)c2c[nH]c3ccccc23)O1 | 46
> 512 | CNC1=NC(=O)[C@H]([C@H](/C=N\O)c2c[nH]c3ccccc23)O1 | > 100000
> 512 | CNC1=NC(=O)[C@](C)([C@@H](C)c2c[nH]c3ccccc23)O1 | > 100000
> 64 | CNC1=NC(=O)[C@H]([C@@H](C[N+](=O)[O-])c2c[nH]c3ccccc23)O1 | > 100000
64 (≈ 263 µM) | CNC1=NC(=O)[C@H](Cc2c[nH]c3ccccc23)O1 | 1550
> 64 | CNC1=NC(=O)[C@H]([C@H](O)c2c[nH]c3ccccc23)O1 | 4000

Compound | MIC [2] [µg/mL] | I50 [1] [ng/mL]
CNC1=NC(=O)[C@H]([C@@H](C)c2c[nH]c3ccccc23)O1 | 8 (≈ 31.1 µM) | 500
CNC1=NC(=O)[C@H]([C@H](C)c2c[nH]c3ccccc23)O1 [INDOMYCIN] | 0.125 (≈ 0.486 µM) | 16
